Results reported in patent US5786367A, “Cyclic amide derivatives” (Otsuka Pharmaceutical Co., Ltd., priority 1994, dated 1998).
Counter-ions that a name gives are not always drawn. Like-named read-outs stand apart in the source and are kept apart here.

Columns and labels:
[1] = test system: skin erythema; experiment: Activity for inhibiting skin erythema caused by ultraviolet radiation; assay type: in vivo, albino guinea pig (Hartley strain, female, 7-8 week age); conditions: for inhibition in vivo at 3 %: Cavia porcellus; for 50% inhibitory concentration (IC50) for inhibiting the skin erythema: three concentrations within 0.1 to 10%
Description: The hairs covering in the back of albino guinea pig (Hartley strain, female, 7-8 week age) were shaved by using an electric hair clippers and a shaver. In the next day, the guinea pig was fixed in Bowlman's cage, then a light shield tape (adhesive plaster for patch test), having 4 round holes of 1.5 cm in diameter was adhered on the hair clipped portion so as to provide 4 sites (round holes) to be exposed to the ultraviolet rays. […] Each one of the test sample solutions was prepared by dissolving each test compounds in three kinds of concentrations within 0.1 to 10%, and applied.

[2] = test system: skin homogenate of guinea pig; experiment: Activity for inhibiting the formation of lipid peroxides (ultraviolet-B irradiated skin homogenate, TBA method); assay type: biochemical, albino guinea pig (Hartley strain, female); conditions: test compound 10^-4 M; UV 9.5 mW/cm^2, 60 minutes
Description: The activity for inhibiting the formation of lipid peroxides which are increasingly formed by exposed to the ultraviolet-B radiation to the skin homogenate of guinea pig was determined by a procedure of thiobarbituric acid method (TBA method).
The activity for inhibiting the formation of lipid peroxides can be evaluated by degree of decreasing the optical absorbance of the condensate of thus formed malondialdehyde with thiobarbituric acid, by adding a test sample of the cyclic amide derivative of the present invention to the homogenate.
That is, the hairs covering in the back of an albino guinea pig (Hartley strain, female) were clipped by using an electric hair clippers under anesthesia. After the enucleation of the hair clipped portion of the skin, the subcutaneous tissue of this skin was removed in cold physiological saline. Distilled water in an amount of 9 times by weight of the skin tissue was added to this skin subcutaneous tissue, then was subjected to homogenation and centrifugation (600 g, for 5 minutes) to obtain the supernatant liquid. 5 Microliters each of test sample solutions of various concentrations was added to 0.5 ml each of the supernatant liquid, then the ultraviolet ray in the intensity of 9.5 mW/cm^2 was irradiated for 60 minutes by using fluorescent lamps (TOSHIBA FL-20SE, manufactured by Toshiba Corporation) as a light source. As to the reference sample solution, the solvent for dissolution of the test compound was used in place of the test sample solution. After ultraviolet radiation, the amount of lipid peroxide being formed in the sample solution (TBA value) was measured by TBA method (cf. Analytical Biochemistry, 1979, Vol. 95, pp. 351-358), and the inhibition rate of lipid peroxide formation shown by the test sample was calculated by the following formula: [formula]

[3] = 3% concentration of test compound, 10 μl topical, UV 1.3-1.5 mW/cm^2 for 30 minutes, measured 24 hours later, read-out: Rate of activity for inhibiting the skin erythema

| Molecule | Inhibition rate of lipid peroxide formation [2] | inhibition in vivo at 3 % [1, 3] [%] | other results |
| --- | --- | --- | --- |
| 5,7-diallyl-3,4-dihydro-6-hydroxy-1-(2-hydroxybutyl)-2(1H)-quinolinone [Example 110] |  |  | Rate of activity for inhibiting the skin erythema ([1]; 3% concentration of test compound, 10 μl topical, UV 1.3-1.5 mW/cm^2 for 30 minutes, measured 24 hours later): 44% |
| C=CCc1cc2c(cc1O)CCC(=O)N2CC=C(C)C [Example 10, 7-allyl-3,4-dihydro-6-hydroxy-1-prenyl-2(1H)-quinolinone] | 82% | 38 |  |
| C=CCc1cc2c(cc1O)N(CC=C(C)C)C(=O)CC2 [Example 11, 6-Allyl-3,4-dihydro-7-hydroxy-1-prenyl-2(1H)-quinolinone] | 70% |  |  |
| C=CCOc1cc2c(cc1CC=C)N(CC=C(C)C)C(=O)CC2 [Example 17, 7-allyl-6-allyloxy-3,4-dihydro-1-prenyl-2(1H)-quinolinone] | 85% |  |  |
| C=CCOc1cc2c(cc1CC=C)CCC(=O)N2CC=C(C)C [Example 20, 6-allyl-7-allyloxy-3,4-dihydro-1-prenyl-2(1H)-quinolinone] | 81% | 37 |  |
| C=CCc1cc2c(c(CC=C)c1O)NC(=O)CC2 [Example 25, 6,8-diallyl-3,4-dihydro-7-hydroxy-2(1H)-quinolinone] | 78% |  |  |
| C=CCc1cc2c(c(CC=C)c1O)CCC(=O)N2 [Example 26, 5,7-diallyl-3,4-dihydro-6-hydroxy-2(1H)-quinolinone] | 80% | 36 |  |
| C=CCc1cc2c(c(CC=C)c1O)CCC(=O)N2CC=C(C)C [Example 27, 5,7-diallyl-3,4-dihydro-6-hydroxy-1-prenyl-2(1H)-quinolinone] | 82% | 60 | 50% inhibitory concentration (IC50) for inhibiting the skin erythema ([1]; topical): 1.3 concentration in % |
| C=CCc1cc2c(c(CC=C)c1O)N(CC=C(C)C)C(=O)CC2 [Example 28, 6,8-diallyl-3,4-dihydro-7-hydroxy-1-prenyl-2(1H)-quinolinone] | 80% | 30 |  |
| C=CCc1cc2c(c(CC=C)c1O)CCC(=O)N2c1ccc(OC)cc1 [Example 32, 5,7-diallyl-3,4-dihydro-6-hydroxy-1-(4-methoxyphenyl)-2(1H)-quinolinone] | 87% |  |  |
| C=CCc1cc2c(c(CC=C)c1O)CCC(=O)N2CCCCCCCCCCO [Example 33, 5,7-diallyl-3,4-dihydro-6-hydroxy-1-(10-hydroxy)-decyl-2(1H)-quinolinone] | 83% | 18 | 50% inhibitory concentration (IC50) for inhibiting the skin erythema ([1]; topical): 9.4 concentration in % |
| C=CCc1cc2c(c(CC=C)c1O)NC(=O)CO2 [Example 35, 5,7-diallyl-6-hydroxy-3-(2H)-1,4-benzoxazinone] |  | 41 | 50% inhibitory concentration (IC50) for inhibiting the skin erythema ([1]; topical): 5.9 concentration in % |
| C=CCc1cc2c(c(CC=C)c1O)OCC(=O)N2CC=C [Example 36, 7-hydroxy-4,6,8-triallyl-3(2H)-1,4-benzoxazinone] |  | 26 | 50% inhibitory concentration (IC50) for inhibiting the skin erythema ([1]; topical): 9.8 concentration in % |
| C=CCc1cc2c(c(CC=C)c1O)N(CC=C)C(=O)CO2 [Example 37, 6-hydroxy-4,5,7-triallyl-3(2H)-1,4-benzoxazinone] |  | 39 | 50% inhibitory concentration (IC50) for inhibiting the skin erythema ([1]; topical): 7.7 concentration in % |
| C=CCc1cc2c(sc(=O)n2CC=C)c(CC=C)c1O [Example 39, 6-hydroxy-3,5,7-triallylbenzothiazolinone] | 82% | 42 | 50% inhibitory concentration (IC50) for inhibiting the skin erythema ([1]; topical): 4.7 concentration in % |
| C=CCc1cc2c(c(CC=C)c1O)CCC(=O)N2CCCCl [Example 42, 1-(3-chloropropyl)-5,7-diallyl-3,4-dihydro-6-hydroxy-2(1H)-quinolinone] |  | 45 |  |
| C=CCc1cc2c(c(CC=C)c1O)CCC(=O)N2C1C=CCCC1 (stereo not drawn) [Example 45] | 95% |  |  |
| C=CCc1cc2c(c(CC=C)c1O)CCC(=O)N2CC=C [Example 46] | 95% |  |  |
| C=CCOc1ccc(CN2C(=O)CCc3c2cc(CC=C)c(O)c3CC=C)cc1 [Example 51] | 95% |  |  |
| C=CCc1cc2c(c(CC=C)c1O)CCC(=O)N2Cc1ccc(OC)cc1 [Example 52] | 100% |  |  |
| C=CCc1cc(CN2C(=O)CCc3c2cc(CC=C)c(O)c3CC=C)ccc1O [Example 53] | 95% |  |  |
| C=CCc1cc2c(c(CC=C)c1O)CCC(=O)N2Cc1ccc(C)c(C)c1 [Example 54] | 96% |  |  |

| Molecule | Inhibition rate of lipid peroxide formation [2] | inhibition in vivo at 3 % [1, 3] [%] | other results |
| --- | --- | --- | --- |
| C=CCc1cc2c(c(CC=C)c1O)CCC(=O)N2CC(=O)OCC [Example 57, 5,7-diallyl-1-(ethoxy-carbonylmethyl)-3,4-dihydro-6-hydroxy-2(1H)-quinolinone] | 78% |  |  |
| C=CCc1cc2c(cc1O)CCC(=O)N2CCCCCCCCCCO [Example 62] | 81% |  |  |
| C=CCc1ccc2c(c1O)N(CCCCCCCCCCO)C(=O)CC2 [Example 65] | 79% |  |  |
| C=CCc1cc2c(c(CC=C)c1O)CCC(=O)N2CCCNC(=O)CCl [Example 69, 1-(3-chloroacetylaminopropyl)-5,7-diallyl-3,4-dihydro-6-hydroxy-2(1H)-quinolinone] | 78% |  |  |
| C=CCc1cc2c(c(CC=C)c1O)CCC(=O)N2CCCN1CCCCC1 [Example 71, 5,7-diallyl-3,4-dihydro-6-hydroxy-1-[3-(piperidinopropyl)]-2(1H)-quinolinone] |  | 45 |  |
| C=CCc1cc2c(c(CC=C)c1O)CCC(=O)N2CCCN1CCOCC1 [Example 72] |  | 33 |  |
| C=CCc1cc2c(c(CC=C)c1O)CCC(=O)N2CCCNCCOC [Example 74] | 68% |  |  |
| C=CCc1cc2c(c(CC=C)c1O)CCC(=O)N2CC(N)=O [Example 77, 1-(carbamoylmethyl)-5,7-diallyl-3,4-dihydro-6-hydroxy-2(1H)-quinolinone] |  | 50 | 50% inhibitory concentration (IC50) for inhibiting the skin erythema ([1]; topical): 2.7 concentration in % |
| C=CCc1cc(CN2C(=O)CCc3c2ccc(O)c3CC=C)cc(OC)c1O [Example 78, 5-allyl-6-hydroxy-1-(3-allyl-4-hydroxy-5-methoxybenzyl)-3,4-dihydro-2(1H)-quinolinone] | 95% |  |  |
| C=CCOc1cc2c(cc1C=CC)N(CC=C(C)C)C(=O)CC2 [Example 80, 6-allyloxy-3,4-dihydro-1-prenyl-7-(1-propenyl)-2(1H)-quinolinone] | 95% |  |  |
| C=CCc1cc2c(c(CC=C)c1O)CCC(=O)N2CCCCNCCCC [Example 84, 1-(4-n-butylaminobutyl)-5,7-diallyl-3,4-dihydro-6-hydroxy-2(1H)-quinolinone.oxalate] |  | 31 |  |
| C=CCc1cc2c(c(CC=C)c1O)CCC(=O)N2CCCCNC(C)(C)CO [Example 85, 5,7-Diallyl-3,4-dihydro-6-hydroxy-1-[4-(2-hydroxy-1,1-dimethyl)ethylamino]butyl-2-(1H)-quinolinone. oxalate] |  | 39 |  |
| C=CCc1cc2c(c(CC=C)c1O)CCC(=O)N2CCCCN(CC)CC [Example 86, 5,7-Diallyl-1-(4-diethylaminobutyl)-3,4-dihydro-6-hydroxy-2(1H)-quinolinone.oxalate] | 71% |  |  |
| C=CCc1cc2c(c(CC=C)c1O)CCC(=O)N2CCCCn1ccnc1 [Example 87, 5,7-Diallyl-3,4-dihydro-6-hydroxy-1-[4-(imidazol-1-yl)butyl]-2-(1N)-quinolinone.oxalate] |  | 28 |  |
| C=CCc1cc2c(c(CC=C)c1O)CCC(=O)N2CCCn1cnnc1 [Example 88, 5,7-diallyl-3,4-dihydro-6-hydroxy-1-[3-(1,2,4-triazol-4-yl)propyl]-2(1H)-quinolinone] |  | 37 |  |
| C=CCc1cc2c(c(CC=C)c1O)CCC(=O)N2CCCCP(=O)(OCC)OCC [Example 93, 5,7-diallyl-1-(4-diethoxy-phosphorylbutyl)-3,4-dihydro-6-hydroxy-2(1H)-quinolinone] | 73% |  |  |
| C=CCc1cc2c(c(CC=C)c1O)CCC(=O)N2CCCCCCCCCCCC [Example 102] |  | 57 | 50% inhibitory concentration (IC50) for inhibiting the skin erythema ([1]; topical): 3.7 concentration in % |
| C=CCc1cc2c(c(CC=C)c1O)CCC(=O)N2CCCCOC(C)=O [Example 104] |  | 31 |  |
| C=CCc1cc2c(c(CC=C)c1O)CCC(=O)N2CCCCC(=O)OC [Example 105] |  | 44 |  |
| C=CCc1cc2c(c(CC=C)c1O)CCC(=O)N2Cc1ccc(C(=O)OC)cc1 [Example 107, 5,7-Diallyl-3,4-dihydro-6-hydroxy-1-(4-methoxycarbonylbenzyl)-2(1H)-quinolinone] |  | 44 |  |
| C=CCc1cc2c(c(CC=C)c1O)CCC(=O)N2CC(=O)[O-].[Na+] [Example 113, sodium (5,7-diallyl-6-hydroxy-1,2,3,4-tetrahydro-2-oxoquinolin-1-yl)acetate] |  |  | inhibition in vivo at 3 % ([1]; topical, 24 h, read-out: Rate of activity for inhibiting the skin erythema, 3% concentration of test compound, 10 μl topical, UV 1.3-1.5 mW/cm^2 for 30 minutes, measured 24 hours later): 52%; 50% inhibitory concentration (IC50) for inhibiting the skin erythema ([1]; topical): 2.5 concentration in % |
| Cc1c(C)c2c(c(C)c1O)CCC(C)(CCCC(C)CCCC(C)CCCC(C)C)O2 (stereo not drawn) [Vitamin E, α-tocopherol, reference compound] | 77-79% |  |  |
